Reference: patent US10934274B2, “Quinoline derivatives as TAM RTK inhibitors” (Qurient Co., Ltd., priority 2015, dated 2021)

How the values were obtained:
Axl = molecular target: T1, Axl (Homo sapiens, UniProt P30530); experiment: LanthaScreen Eu kinase binding assay, Axl; details: Tracer 236
T1 construct: purchased Life Technologies
T1 sequence (P30530 26-894): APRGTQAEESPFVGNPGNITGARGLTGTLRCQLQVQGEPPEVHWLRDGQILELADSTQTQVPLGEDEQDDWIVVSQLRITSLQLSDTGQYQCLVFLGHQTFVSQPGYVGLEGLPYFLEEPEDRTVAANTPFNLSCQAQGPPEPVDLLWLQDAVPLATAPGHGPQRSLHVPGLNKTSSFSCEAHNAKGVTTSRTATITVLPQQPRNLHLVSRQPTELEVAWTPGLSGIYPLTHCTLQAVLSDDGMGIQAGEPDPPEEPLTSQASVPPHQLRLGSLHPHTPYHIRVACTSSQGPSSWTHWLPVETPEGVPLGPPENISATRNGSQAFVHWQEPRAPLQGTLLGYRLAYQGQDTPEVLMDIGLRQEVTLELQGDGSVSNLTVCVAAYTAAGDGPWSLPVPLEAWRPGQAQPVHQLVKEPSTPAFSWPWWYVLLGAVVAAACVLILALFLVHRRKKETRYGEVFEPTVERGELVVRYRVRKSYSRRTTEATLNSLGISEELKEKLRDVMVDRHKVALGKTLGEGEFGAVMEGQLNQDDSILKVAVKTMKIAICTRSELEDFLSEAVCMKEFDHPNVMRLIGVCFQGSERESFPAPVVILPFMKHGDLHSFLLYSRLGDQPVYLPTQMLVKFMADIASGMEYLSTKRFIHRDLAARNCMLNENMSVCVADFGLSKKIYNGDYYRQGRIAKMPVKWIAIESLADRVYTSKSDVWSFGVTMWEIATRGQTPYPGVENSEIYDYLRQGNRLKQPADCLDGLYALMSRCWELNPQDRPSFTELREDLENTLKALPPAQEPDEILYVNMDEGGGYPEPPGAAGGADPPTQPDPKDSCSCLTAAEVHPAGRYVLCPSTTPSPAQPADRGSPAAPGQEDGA
Description: (§1) LanthaScreen® Eu Kinase Binding assays were conducted at Life Technologies using the manufacturer's specifications for each kinase indicated.
(§2) Briefly, the principle behind this assay is based upon the binding and displacement of an Alexa Fluor 647-labeled tracer to the kinase of interest. Binding of the tracer to the kinase is detected using an EU-labeled anti-tag antibody. Simultaneous binding of both the tracer and antibody to the kinase gives rise to a FRET-signal. Binding of an inhibitor to the kinase competes for binding with the tracer, resulting in a loss of FRET-signal.
(§3) Binding Assay Protocol for AXL, Mer, Tyro3 and Met
(§4) A given compound was diluted in DMSO to make a stock compound solution. The stock compound solution was serially diluted over eight steps in DMSO. Each diluted compound solution in DMSO was diluted in kinase buffer. Afterwards four kinds of working solution were prepared. First, Tracer-Working solution consists of Tracer 236 and Kinase Buffer. Second, Axl, Mer, Tyro3 or Met/anti-GST-AB-Working solution contained one of the kinases Axl, Mer, Tyro3, Met or anti-GST-AB (=anti glutathione-S-transferase antibody) in Kinase Buffer. Third, anti-GST-AB-Working solution was made with anti-GST-AB and Kinase Buffer. Last, in the DMSO-Working solution DMSO was added to Kinase Buffer to a final concentration to 3%. Each of the four kinds of working solutions were separately added to the assay plate and then incubated for 1 h at room temperature. After incubation, the assay plate was measured with respect to the FRET-Signal with the EnVision (Perkin Elmer) using the program LanthaHTRF-Assay. Data evaluation was done in the Quattro Workflow software.
(§5) Table 1 summarises the results obtained for AXL, Mer and Tyro3-kinases binding assays; table 2 summarises the results obtained for the Met kinase binding assay.

Mer = molecular target: T2, Mer (Homo sapiens, UniProt Q12866); experiment: LanthaScreen Eu kinase binding assay, Mer; details: Tracer 236
T2 construct: purchased Life Technologies
T2 sequence (Q12866 21-999): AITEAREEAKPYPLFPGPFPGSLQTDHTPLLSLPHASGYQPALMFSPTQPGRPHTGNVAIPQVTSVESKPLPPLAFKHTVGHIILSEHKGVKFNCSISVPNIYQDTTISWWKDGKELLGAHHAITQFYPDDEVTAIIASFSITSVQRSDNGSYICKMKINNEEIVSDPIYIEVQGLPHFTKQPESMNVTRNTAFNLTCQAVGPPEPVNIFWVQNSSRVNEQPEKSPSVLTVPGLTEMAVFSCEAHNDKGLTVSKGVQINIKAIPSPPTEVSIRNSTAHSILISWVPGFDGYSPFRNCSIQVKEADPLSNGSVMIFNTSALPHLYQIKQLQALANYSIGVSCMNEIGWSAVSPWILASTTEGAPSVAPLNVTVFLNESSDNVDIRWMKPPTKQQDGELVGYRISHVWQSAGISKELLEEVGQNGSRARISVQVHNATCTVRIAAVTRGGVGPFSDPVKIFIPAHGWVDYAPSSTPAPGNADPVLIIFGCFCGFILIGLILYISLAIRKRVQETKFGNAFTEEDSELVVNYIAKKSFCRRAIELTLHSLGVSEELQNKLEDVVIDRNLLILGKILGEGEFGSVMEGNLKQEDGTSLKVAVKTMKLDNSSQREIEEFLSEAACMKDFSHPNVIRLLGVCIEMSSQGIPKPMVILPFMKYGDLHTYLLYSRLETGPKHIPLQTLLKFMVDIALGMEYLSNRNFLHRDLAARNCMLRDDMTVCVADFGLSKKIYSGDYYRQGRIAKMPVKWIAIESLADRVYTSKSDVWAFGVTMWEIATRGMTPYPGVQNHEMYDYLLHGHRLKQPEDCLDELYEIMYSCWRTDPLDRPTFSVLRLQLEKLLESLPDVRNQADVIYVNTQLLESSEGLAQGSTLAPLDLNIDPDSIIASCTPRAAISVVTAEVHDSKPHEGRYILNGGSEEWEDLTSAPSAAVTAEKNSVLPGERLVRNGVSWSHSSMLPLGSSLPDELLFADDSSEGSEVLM
Description: as §1, §2, §3, §4, §5

TYRO3 = molecular target: T3, TYRO3 (Homo sapiens, UniProt Q06418); experiment: LanthaScreen Eu kinase binding assay, TYRO3; details: Tracer 236
T3 construct: purchased Life Technologies
T3 sequence (Q06418 41-890): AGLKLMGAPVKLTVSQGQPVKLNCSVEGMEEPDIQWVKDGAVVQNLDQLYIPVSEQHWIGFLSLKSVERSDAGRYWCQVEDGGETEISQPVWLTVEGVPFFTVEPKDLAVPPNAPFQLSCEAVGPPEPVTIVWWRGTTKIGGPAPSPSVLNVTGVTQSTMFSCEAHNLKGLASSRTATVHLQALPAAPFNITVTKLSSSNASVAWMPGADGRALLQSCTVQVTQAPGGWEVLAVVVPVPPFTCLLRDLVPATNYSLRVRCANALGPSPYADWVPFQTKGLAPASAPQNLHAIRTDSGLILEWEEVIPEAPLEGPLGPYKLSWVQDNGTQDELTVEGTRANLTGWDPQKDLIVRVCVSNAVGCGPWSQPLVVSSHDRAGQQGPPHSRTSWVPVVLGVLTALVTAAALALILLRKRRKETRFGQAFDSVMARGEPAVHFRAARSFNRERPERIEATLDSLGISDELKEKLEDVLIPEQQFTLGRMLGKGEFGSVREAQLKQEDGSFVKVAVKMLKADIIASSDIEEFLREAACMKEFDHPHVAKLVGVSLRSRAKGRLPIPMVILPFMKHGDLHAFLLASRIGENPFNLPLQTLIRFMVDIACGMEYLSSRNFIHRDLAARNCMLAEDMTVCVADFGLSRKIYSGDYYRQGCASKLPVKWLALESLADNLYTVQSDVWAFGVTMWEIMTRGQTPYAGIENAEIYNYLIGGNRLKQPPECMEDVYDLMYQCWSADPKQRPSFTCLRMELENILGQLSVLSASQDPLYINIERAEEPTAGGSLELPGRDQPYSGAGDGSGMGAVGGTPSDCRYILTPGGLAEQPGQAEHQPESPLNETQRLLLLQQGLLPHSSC
Description: as §1, §2, §3, §4, §5

Met = molecular target: T4, Met (Homo sapiens, UniProt P08581); experiment: LanthaScreen Eu kinase binding assay, Met; details: Tracer 236, read-out: cMet kinase binding activity (Kd)
T4 construct: purchased Life Technologies
T4 sequence (P08581 25-1390): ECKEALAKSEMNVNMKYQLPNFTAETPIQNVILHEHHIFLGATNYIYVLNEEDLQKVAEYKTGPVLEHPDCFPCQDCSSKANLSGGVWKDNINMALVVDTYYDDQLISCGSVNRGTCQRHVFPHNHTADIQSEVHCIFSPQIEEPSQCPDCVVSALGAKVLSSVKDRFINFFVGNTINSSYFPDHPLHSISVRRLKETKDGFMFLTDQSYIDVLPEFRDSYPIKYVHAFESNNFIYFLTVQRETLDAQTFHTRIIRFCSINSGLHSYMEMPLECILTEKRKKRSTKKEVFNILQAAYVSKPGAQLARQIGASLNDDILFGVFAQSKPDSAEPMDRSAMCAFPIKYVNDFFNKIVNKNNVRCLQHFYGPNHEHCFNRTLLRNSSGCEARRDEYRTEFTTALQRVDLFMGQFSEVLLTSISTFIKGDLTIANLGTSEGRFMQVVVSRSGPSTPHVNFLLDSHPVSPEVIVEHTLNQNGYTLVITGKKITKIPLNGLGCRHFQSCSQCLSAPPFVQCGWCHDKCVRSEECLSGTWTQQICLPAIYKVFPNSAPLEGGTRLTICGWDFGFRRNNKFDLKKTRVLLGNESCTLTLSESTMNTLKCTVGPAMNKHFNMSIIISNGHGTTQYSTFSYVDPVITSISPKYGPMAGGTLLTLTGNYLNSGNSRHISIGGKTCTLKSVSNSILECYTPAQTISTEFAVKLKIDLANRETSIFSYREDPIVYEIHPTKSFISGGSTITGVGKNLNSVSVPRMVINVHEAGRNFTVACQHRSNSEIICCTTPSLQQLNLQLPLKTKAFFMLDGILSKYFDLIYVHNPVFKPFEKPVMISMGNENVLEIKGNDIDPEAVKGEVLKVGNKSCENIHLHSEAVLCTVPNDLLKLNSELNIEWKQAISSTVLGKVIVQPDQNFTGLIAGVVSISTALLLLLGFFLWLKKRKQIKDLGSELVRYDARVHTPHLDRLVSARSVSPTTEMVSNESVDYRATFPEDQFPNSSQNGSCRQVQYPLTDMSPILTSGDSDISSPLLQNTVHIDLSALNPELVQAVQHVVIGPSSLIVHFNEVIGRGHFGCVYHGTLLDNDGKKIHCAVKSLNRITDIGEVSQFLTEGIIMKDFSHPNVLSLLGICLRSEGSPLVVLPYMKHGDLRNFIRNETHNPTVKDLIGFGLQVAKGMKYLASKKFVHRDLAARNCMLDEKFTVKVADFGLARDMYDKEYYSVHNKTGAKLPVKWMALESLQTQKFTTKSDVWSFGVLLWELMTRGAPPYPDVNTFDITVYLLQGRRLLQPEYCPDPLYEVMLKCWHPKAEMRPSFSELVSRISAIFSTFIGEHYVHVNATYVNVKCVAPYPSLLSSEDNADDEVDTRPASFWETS
Description: as §1, §2, §3, §4, §5

Kd (Axl) [µM]	Kd (Mer) [µM]	Kd (TYRO3) [µM]	Kd (Met) [µM]	SMILES
≥ 1	0.1 to 1	≥ 1	0.1 to 1	CCOc1cnn(-c2cncn2C)c1C(=O)Nc1ccc(Oc2ccnc3cc(OC)c(OC)cc23)cn1 [Compound 15]
< 0.1	< 0.1	0.1 to 1	0.1 to 1	CCOc1cn(-c2cnc(C(F)(F)F)nc2)nc1C(=O)Nc1ccc(Oc2ccnc3cc(OC)c(OC)cc23)cn1 [Compound 144]
< 0.1	< 0.1	< 0.1	< 0.1	COc1cc2nccc(Oc3ccc(NC(=O)c4nn(-c5ccc(F)c(C(C)=O)c5)cc4OCC(F)(F)F)nc3)c2cc1OC [Compound 280]
≥ 1	0.1 to 1	≥ 1	0.1 to 1	CCOc1cn(-c2cnc(C(=O)O)nc2)nc1C(=O)Nc1ccc(Oc2ccnc3cc(OC)c(OC)cc23)cn1 [Compound 88]
0.1 to 1	< 0.1	0.1 to 1	< 0.1	CCOc1cnn(CCc2cccnc2)c1C(=O)Nc1ccc(Oc2ccnc3cc(OC)c(OC)cc23)cn1 [Compound 95]
0.1 to 1	< 0.1	≥ 1	≥ 1	CCOc1cn(CC(=O)O)nc1C(=O)Nc1ccc(Oc2ccnc3cc(OC)c(OC)cc23)cn1 [Compound 62]
≥ 1	≥ 1	≥ 1	≥ 1	CCOc1cn(-c2cnccc2C)nc1C(=O)NC1CC2(C1)CC(Oc1ccnc3cc(OC)c(OC)cc13)C2 (stereo not shown) [Compound 221]
< 0.1	< 0.1	< 0.1	< 0.1	CCOc1cn(-c2cnccc2OC)nc1C(=O)Nc1ccc(Oc2ccnc3cc(OC)c(OC)cc23)cn1 [Compound 173]
≥ 1	≥ 1	≥ 1	≥ 1	CCOc1cn(-c2cccnc2)nc1C(=O)Nc1cnc(Oc2ccnc3cc(OC)c(OC)cc23)nc1 [Compound 60]
≥ 1	≥ 1	≥ 1	≥ 1	CCOc1cnn(-c2ccc(C#N)nc2)c1C(=O)Nc1ccc(Oc2ccnc3cc(OC)c(OC)cc23)cn1 [Compound 53]
< 0.1	< 0.1	< 0.1	< 0.1	CCOc1cn(-c2cnccc2C#N)nc1C(=O)Nc1ccc(Oc2ccnc3cc(OC)c(OC)cc23)cn1 [Compound 147]
0.1 to 1	≥ 1	≥ 1	≥ 1	CCOc1cn(-c2cncc(C#N)n2)nc1C(=O)Nc1ccc(Oc2ccnc3cc(OC)c(OC)cc23)cn1 [Compound 158]
< 0.1	< 0.1	< 0.1	< 0.1	CCOc1cn(-c2cnc(N)nc2C)nc1C(=O)Nc1ccc(Oc2ccnc3cc(OC)c(OC)cc23)cn1 [Compound 150]
< 0.1	< 0.1	< 0.1	< 0.1	CCOc1cn(-c2ncc(N)nc2C)nc1C(=O)Nc1ccc(Oc2ccnc3cc(OC)c(OC)cc23)cn1 [Compound 143]
0.1 to 1	< 0.1	≥ 1	< 0.1	CCOc1cnn(Cc2cccnc2)c1C(=O)Nc1ccc(Oc2ccnc3cc(OC)c(OC)cc23)cn1 [Compound 84]
0.1 to 1	0.1 to 1	≥ 1	≥ 1	CCOc1cnn(-c2cnc(N)nc2)c1C(=O)Nc1ccc(Oc2ccnc3cc(OC(C)C)c(OC)cc23)cc1F [Compound 232]
≥ 1	≥ 1	≥ 1	≥ 1	CCOc1cn(-c2cnc(C#N)cn2)nc1C(=O)Nc1ccc(Oc2ccnc3cc(OC)c(OC)cc23)cn1 [Compound 54]
≥ 1	0.1 to 1	≥ 1	0.1 to 1	CCOc1cnn(CCO)c1C(=O)Nc1ccc(Oc2ccnc3cc(OC)c(OC)cc23)cn1 [Compound 72]
≥ 1	≥ 1	≥ 1	≥ 1	CCOc1cn(-c2ccc(F)cc2C)nc1C(=O)Nc1cnc(Oc2ccnc3cc(OC)c(OC)cc23)cn1 [Compound 98]
0.1 to 1	≥ 1	≥ 1	0.1 to 1	CCOc1cn(-c2ccc(F)cc2C)nc1C(=O)Nc1ccc(Oc2ccnc3cc(OC)c(OC)cc23)cc1C(F)(F)F [Compound 109]
0.1 to 1	< 0.1	0.1 to 1	0.1 to 1	CCOc1cn(CCC(=O)NC)nc1C(=O)Nc1ccc(Oc2ccnc3cc(OC)c(OC)cc23)cn1 [Compound 67]
≥ 1	0.1 to 1	≥ 1	≥ 1	COCCOc1cnn(-c2cnc(N)nc2)c1C(=O)Nc1ccc(Oc2ccnc3cc(OC)c(OC)cc23)cn1 [Compound 245]
